According to ChEMBL document CHEMBL1201862, “PubChem BioAssay data set” (2004):
Active and inactive are the calls of the source.

Columns and labels:
[1] = target: T1, Heat shock factor protein 1 (Mus musculus, UniProt P38532); assay: enhancement of HSF1-driven luciferase signal – cell-based, NIH3T3, luminescence, dose retest, confirmation (AID 435004); type: functional;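 also: stress induced by proteasome inhibitor MG132 added 30 min after compound; luciferase reporter driven by HSF1 response element in NIH3T3 cells; actives raise luminescence as potentiators of the MG132 stress response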
T1 sequence (P38532 whole entry): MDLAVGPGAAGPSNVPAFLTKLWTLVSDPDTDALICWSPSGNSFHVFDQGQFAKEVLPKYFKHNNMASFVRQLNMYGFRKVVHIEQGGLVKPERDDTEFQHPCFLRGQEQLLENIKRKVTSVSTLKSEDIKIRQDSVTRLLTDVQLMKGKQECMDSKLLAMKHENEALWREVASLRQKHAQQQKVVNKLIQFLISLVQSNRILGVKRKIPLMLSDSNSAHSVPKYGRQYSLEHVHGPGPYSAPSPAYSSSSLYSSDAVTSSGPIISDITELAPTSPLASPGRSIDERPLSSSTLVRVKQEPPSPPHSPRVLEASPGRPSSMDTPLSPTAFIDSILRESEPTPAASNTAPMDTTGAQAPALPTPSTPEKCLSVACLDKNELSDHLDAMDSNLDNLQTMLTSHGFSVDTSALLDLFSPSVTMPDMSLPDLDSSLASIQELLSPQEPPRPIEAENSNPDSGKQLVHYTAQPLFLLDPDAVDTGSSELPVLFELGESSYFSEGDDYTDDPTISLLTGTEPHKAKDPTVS

[2] = target: T2, Short transient receptor potential channel 4 (Mus musculus, UniProt Q9QUQ5); assay: block of DAMGO-driven TRPC4 calcium entry – cell-based, HEK293 TRPC4/mu-opioid, Fluo-4 calcium, dose response (AID 434942); type: functional;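 also: potency of inhibitors blocking the TRPC4 calcium response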
T2 sequence (Q9QUQ5 whole entry): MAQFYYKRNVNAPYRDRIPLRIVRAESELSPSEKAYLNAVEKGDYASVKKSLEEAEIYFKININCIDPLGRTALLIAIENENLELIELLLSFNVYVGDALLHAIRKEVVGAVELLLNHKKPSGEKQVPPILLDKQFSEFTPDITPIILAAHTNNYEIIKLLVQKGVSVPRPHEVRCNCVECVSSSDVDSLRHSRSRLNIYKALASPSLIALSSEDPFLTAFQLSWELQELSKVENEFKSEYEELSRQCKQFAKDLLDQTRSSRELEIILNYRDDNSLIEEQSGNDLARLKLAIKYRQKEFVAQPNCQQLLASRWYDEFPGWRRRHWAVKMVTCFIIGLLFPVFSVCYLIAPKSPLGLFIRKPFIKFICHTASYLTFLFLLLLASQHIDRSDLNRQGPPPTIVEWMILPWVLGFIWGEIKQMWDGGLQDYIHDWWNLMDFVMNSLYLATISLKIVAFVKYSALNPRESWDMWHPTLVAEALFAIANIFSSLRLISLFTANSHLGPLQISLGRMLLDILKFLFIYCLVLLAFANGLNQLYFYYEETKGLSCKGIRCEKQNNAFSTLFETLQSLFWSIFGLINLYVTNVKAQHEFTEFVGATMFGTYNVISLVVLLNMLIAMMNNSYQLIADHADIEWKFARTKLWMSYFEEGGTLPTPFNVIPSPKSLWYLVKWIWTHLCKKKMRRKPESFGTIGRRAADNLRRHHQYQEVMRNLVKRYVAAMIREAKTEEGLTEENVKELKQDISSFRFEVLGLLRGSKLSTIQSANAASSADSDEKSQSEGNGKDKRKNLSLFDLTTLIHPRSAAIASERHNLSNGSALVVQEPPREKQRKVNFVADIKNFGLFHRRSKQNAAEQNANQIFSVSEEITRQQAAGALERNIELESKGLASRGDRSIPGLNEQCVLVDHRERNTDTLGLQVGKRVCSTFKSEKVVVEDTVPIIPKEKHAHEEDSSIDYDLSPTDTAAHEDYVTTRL

Cytochrome P450 2C9 = Cytochrome P450 2C9 (Homo sapiens, UniProt P11712)
Cytochrome P450 2C9, sequence (P11712 whole entry): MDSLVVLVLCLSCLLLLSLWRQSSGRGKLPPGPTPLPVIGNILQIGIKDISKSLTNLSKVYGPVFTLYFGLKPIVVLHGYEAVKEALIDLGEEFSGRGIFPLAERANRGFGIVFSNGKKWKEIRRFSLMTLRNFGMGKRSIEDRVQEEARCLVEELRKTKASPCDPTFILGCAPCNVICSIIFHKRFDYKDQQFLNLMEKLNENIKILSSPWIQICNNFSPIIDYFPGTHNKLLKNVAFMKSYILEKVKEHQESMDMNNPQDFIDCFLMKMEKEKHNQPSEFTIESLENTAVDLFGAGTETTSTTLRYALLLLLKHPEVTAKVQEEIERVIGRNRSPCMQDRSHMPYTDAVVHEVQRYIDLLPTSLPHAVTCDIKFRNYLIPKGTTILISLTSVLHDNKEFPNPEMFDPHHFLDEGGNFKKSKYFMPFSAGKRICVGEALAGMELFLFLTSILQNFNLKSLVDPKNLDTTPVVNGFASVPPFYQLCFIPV

HEK293 [3] = assay: inhibition of NOD1-driven NF-kB reporter – cell-based, luminescence, uHTS, primary screen (AID 1578); type: functional; conditions: Homo sapiens
[4] = Luminescence Cell-Based Dose Response HTS to Identify Inhibitors of 5'UTR Stem-Loop Driven Prion Protein mRNA Translation in H4 Neuroglioblastoma Cells. [Related pubchem assays: 1827 (Project Summary), 1813 (Primary HTS)]; type: functional
HEK293 [5] = assay: cells; type: functional, cell-based; conditions: Homo sapiens
HEK293 [6] = assay: cells; type: functional, cell-based; conditions: Homo sapiens; remark: listed apart in the source
[7] = alpha-synuclein stem-loop luciferase translation blockers – H4 neuroglioma cells, luminescence, confirmation (AID 1988); type: functional, cell-based
HEK293 [8] = assay: NOD2 signaling inhibitors in MDP-stimulated cells, cell-based, uHTS, luminescence (AID 2001); type: functional; conditions: Homo sapiens
[9] = luciferase reporter signal suppression in cells – H4 neuroglioma cells, luminescence, dose response (AID 1990); type: functional, cell-based
[10] = target: T3, Histone-lysine N-methyltransferase NSD2 (Homo sapiens, UniProt O96028); type: biochemical
T3 sequence (O96028 whole entry): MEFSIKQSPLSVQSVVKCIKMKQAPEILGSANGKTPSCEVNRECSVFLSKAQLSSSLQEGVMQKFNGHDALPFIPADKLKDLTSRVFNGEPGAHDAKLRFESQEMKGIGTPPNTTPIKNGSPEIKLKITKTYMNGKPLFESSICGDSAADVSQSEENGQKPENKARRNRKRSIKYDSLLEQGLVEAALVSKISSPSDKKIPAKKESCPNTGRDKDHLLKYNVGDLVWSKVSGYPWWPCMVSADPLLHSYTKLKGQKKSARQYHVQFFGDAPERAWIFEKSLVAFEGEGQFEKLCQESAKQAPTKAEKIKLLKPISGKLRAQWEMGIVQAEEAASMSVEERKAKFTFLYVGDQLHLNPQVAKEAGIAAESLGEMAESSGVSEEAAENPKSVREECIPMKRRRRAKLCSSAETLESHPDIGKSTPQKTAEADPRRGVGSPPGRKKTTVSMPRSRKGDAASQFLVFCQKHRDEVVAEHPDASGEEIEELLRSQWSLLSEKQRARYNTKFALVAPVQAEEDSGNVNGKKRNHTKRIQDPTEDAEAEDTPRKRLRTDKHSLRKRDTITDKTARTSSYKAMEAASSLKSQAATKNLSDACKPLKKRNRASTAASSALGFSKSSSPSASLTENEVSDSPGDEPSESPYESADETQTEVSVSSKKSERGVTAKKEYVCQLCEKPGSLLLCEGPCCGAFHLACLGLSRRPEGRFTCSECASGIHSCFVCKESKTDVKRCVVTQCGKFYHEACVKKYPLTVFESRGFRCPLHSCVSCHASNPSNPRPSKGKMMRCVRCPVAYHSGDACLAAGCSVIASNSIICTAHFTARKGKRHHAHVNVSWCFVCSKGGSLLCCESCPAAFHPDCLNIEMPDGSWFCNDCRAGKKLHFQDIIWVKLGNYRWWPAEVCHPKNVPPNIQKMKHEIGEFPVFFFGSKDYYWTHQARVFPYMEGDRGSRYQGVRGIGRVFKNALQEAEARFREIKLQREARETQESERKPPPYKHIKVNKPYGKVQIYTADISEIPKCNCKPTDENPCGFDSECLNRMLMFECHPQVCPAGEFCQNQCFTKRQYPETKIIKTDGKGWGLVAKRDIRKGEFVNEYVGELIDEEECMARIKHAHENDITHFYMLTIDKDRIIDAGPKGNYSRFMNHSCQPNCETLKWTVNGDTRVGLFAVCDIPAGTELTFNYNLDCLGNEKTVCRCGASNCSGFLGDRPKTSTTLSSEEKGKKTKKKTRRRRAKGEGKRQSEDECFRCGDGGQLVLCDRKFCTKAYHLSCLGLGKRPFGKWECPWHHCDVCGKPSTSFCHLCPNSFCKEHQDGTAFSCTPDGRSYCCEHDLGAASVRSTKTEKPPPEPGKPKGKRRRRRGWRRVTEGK

H9c2 = assay: cells; type: functional, cell-based; conditions: Rattus norvegicus, H9c2, Myocardium
Cytochrome P450 2D6 = Cytochrome P450 2D6 (Homo sapiens, UniProt P10635);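 also: CYP2D6 member of a cytochrome P450 panel assay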
Cytochrome P450 2D6, sequence (P10635 whole entry, the tested form may be a part): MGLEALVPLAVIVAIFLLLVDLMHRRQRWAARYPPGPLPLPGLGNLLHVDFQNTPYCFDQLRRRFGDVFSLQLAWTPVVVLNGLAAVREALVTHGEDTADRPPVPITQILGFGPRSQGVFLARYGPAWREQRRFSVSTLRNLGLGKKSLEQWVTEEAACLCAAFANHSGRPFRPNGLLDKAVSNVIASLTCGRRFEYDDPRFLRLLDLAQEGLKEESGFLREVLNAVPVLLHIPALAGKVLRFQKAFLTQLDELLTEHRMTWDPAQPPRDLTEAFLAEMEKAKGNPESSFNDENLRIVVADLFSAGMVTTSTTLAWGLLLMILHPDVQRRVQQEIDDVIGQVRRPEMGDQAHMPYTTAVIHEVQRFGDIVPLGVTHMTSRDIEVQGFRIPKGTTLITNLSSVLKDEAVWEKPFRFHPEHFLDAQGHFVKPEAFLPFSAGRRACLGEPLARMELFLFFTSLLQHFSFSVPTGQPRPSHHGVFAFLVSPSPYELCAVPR

[11] = blockers of HIV-1 envelope-mediated cell-cell fusion – cherry-pick, dose response (AID 652057); type: functional, cell-based
[12] = HIV-1 AD8 envelope cell-cell fusion blockers – cherry-pick, dose response (AID 652062); type: functional, cell-based;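 also: luciferase signal from cell-cell fusion driven by HIV-1 clade B AD8 Env; potency is for inhibitors of fusion seen as a drop in luminescence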
HEK293 [13] = assay: EBV LMP1 TES2 canonical NF-kB signalling blockers – cell-based, HEK293, luciferase, cherry-pick, dose response (AID 588343); type: functional; conditions: Homo sapiens
[14] = target: T4, DNA repair and recombination protein RAD54-like (Homo sapiens, UniProt Q92698); assay: RAD54 Holliday junction migration blockers – biochemical, fluorescence, cherry-picked samples, dose series, confirmation (AID 651657); type: functional
T4 sequence (Q92698 whole entry): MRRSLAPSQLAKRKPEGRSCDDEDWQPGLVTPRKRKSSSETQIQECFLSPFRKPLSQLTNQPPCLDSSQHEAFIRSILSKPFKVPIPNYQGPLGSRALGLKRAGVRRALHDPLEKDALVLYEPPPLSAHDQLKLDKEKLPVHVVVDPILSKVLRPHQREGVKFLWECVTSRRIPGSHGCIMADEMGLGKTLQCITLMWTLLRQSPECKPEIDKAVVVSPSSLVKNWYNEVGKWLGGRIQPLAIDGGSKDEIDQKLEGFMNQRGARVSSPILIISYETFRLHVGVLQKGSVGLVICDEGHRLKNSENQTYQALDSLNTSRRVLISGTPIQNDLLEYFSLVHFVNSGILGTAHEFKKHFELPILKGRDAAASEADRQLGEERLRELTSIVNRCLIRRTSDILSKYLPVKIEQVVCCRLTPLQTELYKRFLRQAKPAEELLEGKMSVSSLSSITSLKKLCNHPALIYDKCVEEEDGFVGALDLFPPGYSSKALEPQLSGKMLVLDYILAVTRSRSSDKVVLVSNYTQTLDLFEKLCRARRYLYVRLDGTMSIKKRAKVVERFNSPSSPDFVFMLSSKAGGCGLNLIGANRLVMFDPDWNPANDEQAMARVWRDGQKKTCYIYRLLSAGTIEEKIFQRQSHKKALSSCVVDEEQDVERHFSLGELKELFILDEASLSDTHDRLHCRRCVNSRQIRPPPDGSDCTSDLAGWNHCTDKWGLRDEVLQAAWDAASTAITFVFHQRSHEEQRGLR

## Cc1ccsc1C(=O)C1CCCN(Cc2ccccc2O)C1 (centres undefined)
[1]
  EC50: > 260 µM (inactive)
[2]
  EC50: 4.22 µM (active)

## COc1ccc(N2CCN(S(=O)(=O)c3ccc4c(c3)CCCC4)CC2)c([N+](=O)[O-])c1
Cytochrome P450 2C9
  AC50: inconclusive

## Cc1nc2cc(NC(=O)c3ccc([N+](=O)[O-])s3)ccc2s1
HEK293 [3]
  EC50: 3.16 µM (active)
[4]
  EC50: 4.17 µM (active)
HEK293 [5]
  IC50: > 20 µM (inactive)
HEK293 [6]
  IC50: > 20 µM (inactive)
[7]
  EC50: 0.95 µM (active)
HEK293 [8]
  IC50: > 20 µM (inactive)
[9]
  EC50: < 0.1 µM (active)

## CNCCOc1ccccc1-c1ccccc1
[10]
  AC50: > 20 µM (inactive)

## O=C(CCc1nc(O)c2ccccc2n1)N1CCN(S(=O)(=O)c2ccccc2Br)CC1
H9c2
  IC50: > 79 µM (inactive)

## COc1ccc(-c2csc(NC(=O)CCn3cnc4ccccc4c3=O)n2)cc1OC
H9c2
  IC50: 27.9 µM (active)

## COc1ccc(C(C(=O)NC2CCCCC2)N2CCC3(CC2)OCCO3)cc1 (centres undefined)
Cytochrome P450 2D6
  AC50: 0.316 µM (inconclusive)
Cytochrome P450 2C9
  AC50: inconclusive

## C[C@H](CO)N1C[C@H](C)[C@@H](CN(C)C(=O)[C@H](Cc2ccccc2)N(C)C)OCc2ccccc2-c2c(n(C)c3ccccc23)C1=O
[11]
  AC50: 1.6 µM (active)
[12]
  AC50: 13.3 µM (active)

## Cc1cc(C(=O)COc2cccnc2[N+](=O)[O-])c(C)n1-c1ccccc1F
[4]
  EC50: 16.8 µM (active)
[7]
  EC50: 0.791 µM (active)
[9]
  EC50: 6.07 µM (active)
HEK293 [13]
  AC50: 2.61 µM (active)

## O=C(CCCN1C(=O)c2cccc3cccc(c23)C1=O)N1CCN(c2ccccc2O)CC1
H9c2
  IC50: 9.95 µM (active)

## Cc1ccc2nc(C)c3c(c2c1)N(c1ccc(F)cc1)CC3
[2]
  EC50: 3.76 µM (active)
[14]
  AC50: 97.9 µM (active)
